Experimental findings from PubChem BioAssay AID220 (DTP/NCI, 2004) are described below.

Several values for one entry are separate records, joined by “and”; a condition that tells them apart may be missing. Identical values can stand only once. Records with an inconclusive call do not appear. Starred links: 1 amine or outer side, 2 acyl side, 3 side chain; linkers in the order of their positions; H or OH if unused. Positions of bridges follow the written chain, without caps; N, C: chain ends. Non-standard residues stand in square brackets, D forms with d. Residues, ends and D or L forms follow the SMILES beside them. Chains are numbered I, II in the order given. Actinocin(9to1) = Cc1c2oc3c(C)ccc(C(=O)[*:1])c3nc-2c(C(=O)[*:2])c(N)c1=O; NMeV = CN[CH](C(=O)O)C(C)C; Sar = CNCC(=O)O

In the assay the test system is CD8F1 mice, subcutaneous mammary adenocarcinoma, T/C%. The experiment in a line: NCI In Vivo Anticancer Drug Screen. Data for tumor model Mammary Adenocarcinoma CD8F1 (subcutaneous) in CD8F1. To be noted: higher = larger tumour. The gist of the method: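 Tumor-bearing mice, transplantable model; readout survival or tumor size; value = treated (T) / vehicle control (C).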

Where [1] appears, read: endpoint: median tumor weight (est.), dose: 25.0 mg/kg/injection, schedule: Q07DX005 (ip), vehicle: saline with Tween-80.
The mark [2] stands for this setting: endpoint: median tumor weight (est.), dose: 200.0 mg/kg/injection, schedule: Q07DX005 (ip), vehicle: saline with Tween-80.
The mark [3] stands for this setting: endpoint: median tumor weight (est.), dose: 12.5 mg/kg/injection, schedule: Q07DX005 (ip), vehicle: saline with Tween-80.
The mark [4] stands for this setting: endpoint: median tumor weight (est.), dose: 50.0 mg/kg/injection, schedule: Q07DX005 (ip), vehicle: saline with Tween-80.
[5] abbreviates: endpoint: median tumor weight (est.), dose: 25.0 mg/kg/injection, schedule: Q07DX005 (ip), vehicle: Klucel (hydroxypropylcellulose) (HPC).
Setting [6] is: endpoint: median tumor weight (est.), dose: 50.0 mg/kg/injection, schedule: Q07DX005 (ip), vehicle: Klucel (hydroxypropylcellulose) (HPC).
Where [7] appears, read: endpoint: median tumor weight (est.), dose: 100.0 mg/kg/injection, schedule: Q07DX005 (ip), vehicle: Klucel (hydroxypropylcellulose) (HPC).
Where [8] appears, read: endpoint: median tumor weight (est.), dose: 200.0 mg/kg/injection, schedule: Q07DX005 (ip), vehicle: Klucel (hydroxypropylcellulose) (HPC).
The mark [9] stands for this setting: endpoint: median tumor weight (est.), dose: 400.0 mg/kg/injection, schedule: Q07DX005 (ip), vehicle: Klucel (hydroxypropylcellulose) (HPC).
[10] abbreviates: endpoint: median tumor weight change, dose: 125.0 mg/kg/injection, schedule: Q01DX001 (ip), vehicle: saline.
Where [11] appears, read: endpoint: median tumor weight change, dose: 250.0 mg/kg/injection, schedule: Q01DX001 (ip), vehicle: saline.

Take `N=c1nc2n(cc1F)[C@@H]1O[C@H](CO)[C@@H](O)[C@@H]1O2`: the T/C reads like this: (endpoint: median tumor weight (est.), dose: 12.5 mg/kg/injection, schedule: Q07DX005 (ip), vehicle: saline) 25 % of control; (endpoint: median tumor weight (est.), dose: 50.0 mg/kg/injection, schedule: Q07DX005 (ip), vehicle: saline) 71 % of control; (endpoint: median tumor weight (est.), dose: 50.0 mg/kg/injection, schedule: Q07DX005 (ip), vehicle: suspension in saline) 86 % of control; (endpoint: median tumor weight (est.), dose: 100.0 mg/kg/injection, schedule: Q07DX005 (ip), vehicle: saline) 68 % of control; (endpoint: median tumor weight (est.), dose: 100.0 mg/kg/injection, schedule: Q07DX005 (ip), vehicle: suspension in saline) 57 % of control; (endpoint: median tumor weight (est.), dose: 200.0 mg/kg/injection, schedule: Q07DX005 (ip), vehicle: saline) 56 % of control. For the same compound, the T/C reads like this: (endpoint: median tumor weight (est.), dose: 200.0 mg/kg/injection, schedule: Q07DX005 (ip), vehicle: suspension in saline) 63 % of control; (endpoint: median tumor weight (est.), dose: 400.0 mg/kg/injection, schedule: Q07DX005 (ip), vehicle: saline) 33 % of control; (endpoint: median tumor weight (est.), dose: 400.0 mg/kg/injection, schedule: Q07DX005 (ip), vehicle: suspension in saline) 69 % of control; (endpoint: median tumor weight (est.), dose: 800.0 mg/kg/injection, schedule: Q07DX005 (ip), vehicle: suspension in saline) 58 % of control; (endpoint: median tumor weight (est.), dose: 1600.0 mg/kg/injection, schedule: Q07DX005 (ip), vehicle: suspension in saline) 72 % of control.
On to `COC1C(O)CC(OC2C(C)OC(Oc3cc(O)c4c(O)c5c(cc4c3)C[C@@H]([C@H](OC)C(=O)[C@@H](O)[C@@H](C)O)[C@H](OC3CC(OC4CC(OC6CC(C)(O)C(O)C(C)O6)C(O)C(C)O4)C(O)C(C)O3)C5=O)CC2OC(C)=O)OC1C` (stereo partly drawn), for which the T/C was 207 % of control (endpoint: median tumor weight (est.), dose: 18.75 mg/kg/injection, schedule: Q07DX005 (ip), vehicle: suspension in saline); 66 % of control (endpoint: median tumor weight (est.), dose: 75.0 mg/kg/injection, schedule: Q07DX005 (ip), vehicle: suspension in saline); 111 % of control (endpoint: median tumor weight (est.), dose: 150.0 mg/kg/injection, schedule: Q07DX005 (ip), vehicle: suspension in saline); 123 % of control (endpoint: median tumor weight (est.), dose: 300.0 mg/kg/injection, schedule: Q07DX005 (ip), vehicle: suspension in saline).
Regarding `O=S(=O)(c1ccccc1)N1CN2CCN(C2)C1`, the T/C is, setting by setting: under setting [1], 55 % of control and 72 % of control; under setting [2], 66 % of control and 79 % of control.
As to `C[Si](C)(C)n1nnn(-c2ccccc2)c1=O`, the T/C by setting is: (endpoint: mean tumor weight, dose: 25.0 mg/kg/injection, schedule: Q07DX006 (ip), vehicle: saline with Tween-80) 100 % of control; (endpoint: mean tumor weight, dose: 50.0 mg/kg/injection, schedule: Q07DX006 (ip), vehicle: saline with Tween-80) 164 % of control; (endpoint: mean tumor weight, dose: 400.0 mg/kg/injection, schedule: Q07DX006 (ip), vehicle: saline with Tween-80) 102 % of control; under setting [3], 79 % of control; under setting [1], 65 % of control; under setting [4], 97 % of control. Further, the T/C by setting is: under setting [2], 77 % of control; (endpoint: median tumor weight (est.), dose: 400.0 mg/kg/injection, schedule: Q07DX005 (ip), vehicle: saline with Tween-80) 87 % of control.
Regarding `CCCCCC(=O)O[C@]1(C(C)=O)CC[C@H]2[C@@H]3CCC4=CC(=O)CC[C@]4(C)[C@H]3CC[C@@]21C`, the T/C (endpoint: median tumor weight (est.), dose: 12.5 mg/kg/injection, schedule: Q07DX005 (ip), vehicle: Klucel (hydroxypropylcellulose) (HPC)) is 95 % of control; the T/C under setting [5] was 90 % of control; the T/C under setting [6] was 101 % of control; the T/C under setting [7] is 92 % of control; the T/C under setting [8] was 49 % of control; the T/C under setting [9] was 77 % of control.
For `CC(=O)CC(=O)CCC(=O)O`, the T/C reads like this: under setting [10], 62 % of control; under setting [11], 65 % of control.
Consider `O=S(=O)(SC(S(=O)(=O)c1ccccc1)S(=O)(=O)c1ccccc1)c1ccccc1`, for which the T/C is 55 % of control under setting [5], 90 % of control under setting [6], 112 % of control under setting [8] and 70 % of control under setting [9].
For the compound `COc1ccc(S(=O)(=O)N/N=C/C(=O)O)cc1`, the T/C is 55 % of control (endpoint: median tumor weight (est.), dose: 6.25 mg/kg/injection, schedule: Q07DX005 (ip), vehicle: saline with Tween-80); 198 % of control under setting [3]; 73 % of control and 82 % of control under setting [1]; 206 % of control under setting [4]; 44 % of control and 61 % of control under setting [2].
On to `CN(C)CCN1C(=O)c2cccc3cc(N)cc(c23)C1=O`, for which the T/C reads like this: (endpoint: median tumor weight change, dose: 10.0 mg/kg/injection, schedule: Q01DX001 (ip), vehicle: saline with Tween-80) 81 % of control and 92 % of control; (endpoint: median tumor weight change, dose: 40.0 mg/kg/injection, schedule: Q01DX001 (ip), vehicle: saline with Tween-80) 42 % of control and 44 % of control and 61 % of control.
`CCN(CC)c1ccc2cc(-c3nc4ccccc4n3C)c(=O)oc2c1`: the T/C under setting [5] is 62 % of control and 84 % of control; the T/C under setting [6] is 79 % of control; the T/C under setting [7] is 35 % of control; the T/C under setting [8] was 24 % of control; the T/C (endpoint: median tumor weight change, dose: 125.0 mg/kg/injection, schedule: Q01DX001 (ip), vehicle: Klucel (hydroxypropylcellulose) (HPC)) was 92 % of control; the T/C (endpoint: median tumor weight change, dose: 250.0 mg/kg/injection, schedule: Q01DX001 (ip), vehicle: Klucel (hydroxypropylcellulose) (HPC)) is 80 % of control. Moreover, the T/C (endpoint: median tumor weight change, dose: 500.0 mg/kg/injection, schedule: Q01DX001 (ip), vehicle: Klucel (hydroxypropylcellulose) (HPC)) is 37 % of control.
On to `CC(C)(C)c1ccc(CN2CCN(C(c3ccccc3)c3ccc(Cl)cc3)CC2)cc1` (stereo not drawn), for which the T/C reads like this: (endpoint: median tumor weight change, dose: 8.0 mg/kg/injection, schedule: Q01DX001 (ip), vehicle: Klucel (hydroxypropylcellulose) (HPC)) 98 % of control; (endpoint: median tumor weight change, dose: 16.0 mg/kg/injection, schedule: Q01DX001 (ip), vehicle: Klucel (hydroxypropylcellulose) (HPC)) 96 % of control; (endpoint: median tumor weight change, dose: 32.0 mg/kg/injection, schedule: Q01DX001 (ip), vehicle: Klucel (hydroxypropylcellulose) (HPC)) 101 % of control; (endpoint: median tumor weight change, dose: 64.0 mg/kg/injection, schedule: Q01DX001 (ip), vehicle: Klucel (hydroxypropylcellulose) (HPC)) 108 % of control; (endpoint: median tumor weight change, dose: 128.0 mg/kg/injection, schedule: Q01DX001 (ip), vehicle: Klucel (hydroxypropylcellulose) (HPC)) 55 % of control; (endpoint: median tumor weight change, dose: 256.0 mg/kg/injection, schedule: Q01DX001 (ip), vehicle: Klucel (hydroxypropylcellulose) (HPC)) 84 % of control.
Consider `CCCCCCCCCCCCCCC/C([O-])=N/[N+](C)(C)CC(C)O` (stereo not drawn), for which the T/C was 49 % of control under setting [10]; 96 % of control under setting [11]; 69 % of control (endpoint: median tumor weight change, dose: 500.0 mg/kg/injection, schedule: Q01DX001 (ip), vehicle: saline).
Turning to `CCN1/C(=C/C=C/C=C/c2sc3ccccc3[n+]2CC)Sc2ccccc21`, the T/C by setting is: (endpoint: median tumor weight (est.), dose: 0.37 mg/kg/injection, schedule: Q07DX006 (ip), vehicle: saline) 77 % of control; (endpoint: median tumor weight (est.), dose: 0.75 mg/kg/injection, schedule: Q07DX006 (ip), vehicle: saline) 233 % of control.
For `S=C1CCCCN1`, the T/C runs as follows: (endpoint: median tumor weight change, dose: 37.5 mg/kg/injection, schedule: Q01DX001 (ip), vehicle: distilled water + Tween-80 + alcohol) 73 % of control; (endpoint: median tumor weight change, dose: 75.0 mg/kg/injection, schedule: Q01DX001 (ip), vehicle: distilled water + Tween-80 + alcohol) 111 % of control; (endpoint: median tumor weight change, dose: 150.0 mg/kg/injection, schedule: Q01DX001 (ip), vehicle: distilled water + Tween-80 + alcohol) 86 % of control.
Take `C=C1C(C)C2C(Cc3ccccc3)NC(=O)C23C(OC(C)=O)/C=C/C(C)(O)CC(C)C/C=C/C3C1O` (stereo not drawn): where the note is “endpoint: median tumor weight change, dose: 7.5 mg/kg/injection, schedule: Q01DX001 (ip), vehicle: Klucel (hydroxypropylcellulose) (HPC)”, the T/C is 61 % of control and 66 % of control.
As to `Cc1c2oc3c(C)ccc(C(=O)NC4C(=O)NC(C(C)C)C(=O)N5CCCC5C(=O)N(C)CC(=O)N(C)C(C(C)C)C(=O)OC4C)c3nc-2c(C(=O)NC2C(=O)NC(C(C)C)C(=O)N3CCCC3C(=O)N(C)CC(=O)N(C)C(C(C)C)C(=O)OC2C)c(N)c1=O` (stereo not drawn) (I: TVP[Sar][NMeV] / II: TVP[Sar][NMeV]; ester I:1-I:C, II:1-II:C; linker I:N-II:N via Actinocin(9to1); configuration not given here), the T/C is, setting by setting: (endpoint: median tumor weight (est.), dose: 0.5 mg/kg/injection, schedule: Q07DX005 (ip), vehicle: saline) 26 % of control and 30 % of control; (endpoint: median tumor weight (est.), dose: 1.0 mg/kg/injection, schedule: Q07DX005 (ip), vehicle: saline) 3 % of control and 20 % of control.
